Values of other authors as cited in patent US7098029B1, “Product and method for control of obesity” (Metabolic Pharmaceuticals Limited, priority 1999, dated 2006).

System: C57B1/6J (Ob/Ob) mouse
Details: administration by injection; cited from earlier work

For “hGH 177–191: synthetic peptide corresponding to amino acid residues 177–191 of the human growth hormone sequence (LRIVQCRSVEGSCGF)”, the adipose tissue mass is given as “reduce body weight gain and adipose tissue mass” and the body weight gain is given as “reduce body weight gain”.
